In patent US7951831B2, “Use of inhibitors of soluble epoxide hydrolase to synergize activity of COX and 5-LOX inhibitors” (The Regents of the University of California, priority 2005, dated 2011):

Experiments:
COX-2 protein = test: Western immunoblot of COX-2 protein in livers of mice; type: in vivo; details: liver; LPS 10 mg/Kg i.p.; COX-2 inhibitor 50 mg/Kg or AUDA-BE 20 mg/Kg sc (FIG. 8)
Protocol: Horizontal axis: treatment administered to the mice. First column: vehicle (oleic acid, administered subcutaneously (“s.c.” or “sc”)). Second column: lipopolysaccharide (“LPS”, 10 mg/Kg i.p.) and vehicle. […] Fifth column: AUDA-BE (20 mg/Kg sc). Sixth column: AUDA-BE (20 mg/Kg sc)+LPS (10 mg/Kg i.p.). […] Vertical axis: depicts percentage of protein induced in test animals receiving designated treatment compared to that of control mice receiving vehicle without LPS.
Western immunoblot analysis was performed with proteins isolated from liver to detect cycloxygenase 2 (COX-2). The isolated proteins were separated by electrophoresis on 10% SDS-PAGE and then transferred onto polyvinylidene fluoride membranes (Immobilon P, Millipore Corp., Bedford, Mass.). […] The membranes were incubated with rabbit anti-mouse HRP-linked IgG (Amersham, Arlington Heights, Ill.) at 1:10,000 dilution, washed, then contacted with secondary antibody and visualized using SuperSignal® West Femto Maximum Sensitivity Substrate (Pierce Biotechnology, Inc., Rockford, Ill.), a chemiluminiscence detection system, per manufacturer's instructions. The immunodetectable bands were quantified by densitometry with Kodak 1.D Image Analysis System v.

[1] = tail flick assay, without induction of pain; type: in vivo, mice; details: sc in oleic oil, responses after 90 minutes; no induction of pain
Protocol: Briefly, mice are kept under 12:12 h light: dark cycle and water and food is supplied ad libitum. Mice are trained for three days to the experimental chambers in 30 min sessions each time. The next day baseline readings are taken. Vehicle control (oleic oil) is then injected sc in the next day and measurements are taken. Two days later, animals are injected through the sc route with test compounds dissolved in the oil vehicle and their responses are recorded after 90 minutes.
Tail flick and hind paw withdrawal latency tests are conducted according to D'Amour and Smith, J Pharmacol Exp Ther 72:74-9 (1941), and Woolfe and McDonald, J Pharmacol Exp Ther, 80:300-7 (1944). In tail flick assays, mice are placed in restrainers and left undisturbed for 30 minutes. Readings are then taken by placing the posterior end of the tail onto a tail flick apparatus that has a radiant heat source set to 55 C. Five measurements per animal are taken at two-minute intervals. The latency to move the tail is recorded. In hind paw withdrawal assays, the mice are placed in an experimental chamber with a glass surface. The temperature of this surface is kept constant at 30° C. After a 30-minute period of acclimation, radiant heat is applied to the plantar surface of the hind paw. Five measurements per animal are taken at two-minute intervals. The latency to move the paw is recorded. […]

[2] = test system: arachidonic acid metabolites in mouse plasma; test: plasma oxylipin metabolites in mice exposed to LPS (LC-MS/MS); type: in vivo; details: AUDA-BE 20 mg/Kg alone
sEH = target: T1, sEH (Homo sapiens, UniProt P34913); test: inhibition of soluble epoxide hydrolase; type: biochemical
T1 sequence (P34913 1-555): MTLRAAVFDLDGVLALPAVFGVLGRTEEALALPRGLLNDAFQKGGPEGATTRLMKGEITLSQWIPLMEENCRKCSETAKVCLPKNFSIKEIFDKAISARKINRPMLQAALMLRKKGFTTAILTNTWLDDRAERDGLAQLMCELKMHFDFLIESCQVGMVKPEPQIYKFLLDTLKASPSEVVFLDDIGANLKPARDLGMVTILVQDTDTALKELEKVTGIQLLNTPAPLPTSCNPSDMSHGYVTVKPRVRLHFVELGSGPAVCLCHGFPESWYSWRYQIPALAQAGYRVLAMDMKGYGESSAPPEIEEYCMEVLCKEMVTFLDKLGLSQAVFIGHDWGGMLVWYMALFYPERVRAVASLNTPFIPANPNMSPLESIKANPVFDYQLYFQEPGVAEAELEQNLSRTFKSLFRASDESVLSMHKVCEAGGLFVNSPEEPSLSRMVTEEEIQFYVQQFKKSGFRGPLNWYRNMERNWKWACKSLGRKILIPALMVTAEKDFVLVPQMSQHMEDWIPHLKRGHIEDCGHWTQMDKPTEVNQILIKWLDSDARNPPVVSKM
Description: Any of a number of standard assays for determining epoxide hydrolase activity can be used to determine inhibition of sEH. For example, suitable assays are described in Gill, et al., Anal Biochem 131, 273-282 (1983); and Borhan, et al., Analytical Biochemistry 231, 188-200 (1995)). Suitable in vitro assays are described in Zeldin et al., J Biol. Chem. 268:6402-6407 (1993). Suitable in vivo assays are described in Zeldin et al., Arch Biochem Biophys 330:87-96 (1996). […]
The enzyme also can be detected based on the binding of specific ligands to the catalytic site which either immobilize the enzyme or label it with a probe such as dansyl, fluoracein, luciferase, green fluorescent protein or other reagent. […] The enzyme also can be detected based on the generation of fluorescent products following the hydrolysis of the epoxide. […]

metabolic stability = type: in vitro ADME
COX-2 / COX-1 = details: the smaller the ratio, the more specific for COX-2; cited from earlier work

For CCCCOC(=O)CCCCCCCCCCCNC(=O)NC12CC3CC(CC(C3)C1)C2 [AUDA-BE, 12-(3-adamantane-1-yl-ureido)-dodecanoic acid butyl ester], the “amount of COX-2 relative to control mice” value (COX-2 protein) was “about 4 times”, the “analgesic effect in tail flick assay” value [1] was “slight but significant analgesic effect” and the “5-HETE, percentage of metabolite compared to control mice receiving vehicle without LPS” value [2] was 262±21%. For the same compound, the “6-keto-PGF1a, percentage of metabolite compared to control mice receiving vehicle without LPS” value [2] was 128±6%, the “PGE2, percentage of metabolite compared to control mice receiving vehicle without LPS” value [2] was 241±2% and the “ΣDHOME, percentage of metabolite compared to control mice receiving vehicle without LPS” value [2] was 141±15%. For the same compound, the “ΣEpOME, percentage of metabolite compared to control mice receiving vehicle without LPS” value [2] was 122±8%.
With CCCCCCCCCCCCNC(=O)NC12CC3CC(CC(C3)C1)C2 [ADU, N-Adamantyl-N′-dodecyl urea] the “activity as an inhibitor of sEH” value (sEH) was “particularly high activity” and the metabolic stability (metabolic stability) was “metabolically stable”.
For CC(=O)Oc1ccccc1C(=O)O [Aspirin, aspirin], the “COX-2 (IC50)/COX-1 (IC50) ratio” value (COX-2 / COX-1) is given as 0.32.
